Assay results from patent US11932620B1, “Ethyl 2-[9-(6-flouro-2-hydroxyquinolin-3-yl)-1,8-dioxo-3,4,9,10-tetrahydroacridine-10-yl]-acetate as an antimicrobial compound” (KING FAISAL UNIVERSITY, priority 2023, dated 2024).

Experiments:
Format in all cases: cell-based
Details in all cases: after 10, 20, 40 and 60 minutes at all dilutions 1:100, 1:200, 1:400, 1:800
[1] = test system: Pseudomonas aeruginosa; assay: Antimicrobial screening by agar dilution, Pseudomonas aeruginosa
Protocol: (§1) The antibacterial properties of the synthesized compound ethyl 2-[9-(6-fluoro-2-hydroxyquinolin-3-yl)-1,8-dioxo-3,4,9,10-tetrahydroacridine-10-yl]-acetate were studied by the method of agar dilution. Test solutions of each compound was prepared in concentration of 1% using dimethylformamide as a solvent then they are diluted in physiological solution to obtain the final experimental dilutions 1:100, 1:200, 1:400, 1:800. The effect of these substances are compared with furacillin in a controllable study. The testing microbes used were gram positive bacteria Staphylococcus aureus, gram negative bacteria Pseudomonas aeruginosa and Escherichia coli and Candida albicans fungus. The experiments used for this survey were meat-pentonlu agar (EPA) for cultivation of bacteria and Saburo environment for the fungus. Each experiment used 1 mL of test solution on each plate […]. Two drops of emulsified with microbes feel were added. All experimental samples were taken from the agar after 10, 20, 40, 60 minutes in the environment on the basis of Patrk planted. The bacteria were cultivated at a temperature of 37° C. for 1 day and the mushroom was kept in a thermostat for 2 hours at a temperature of 28° C. Then results were checked. Results of the control (Furacilin) and the antimicrobial activity for the synthesized compounds are listed in are listed in Table 1.

[2] = test system: Candida albicans; assay: Antimicrobial screening by agar dilution, Candida albicans
Protocol: as §1

[3] = test system: Escherichia coli; assay: Antimicrobial screening by agar dilution, Escherichia coli
Protocol: as §1

[4] = test system: Staphylococcus aureus; assay: Antimicrobial screening by agar dilution, Staphylococcus aureus
Protocol: as §1

Measured: inhibition activity (in words)

CCOC(=O)CN1C2=C(C(=O)CCC2)C(c2cc3cc(F)ccc3nc2O)C2=C1CCCC2=O [ethyl 2-[9-(6-fluoro-2-hydroxyquinolin-3-yl)-1,8-dioxo-3,4,9,10-tetrahydroacridine-10-yl]-acetate]
highest inhibition activity: all assays above
